Experiment: in vitro
Conditions: human, hela cells, % viability

Row | SMILES | viability at 28.5 h, 10 µM
1 | CC(C)(C)OC(=O)NCc1ccc(-c2ccc(Nc3cccnc3)nc2)cc1 [CBK037804] | 95.3%
2 | Cc1cc(C)c2c(c1)-c1c(ssc1=S)C(C)(C)N2C(=O)CSc1nncn1C [CBK263035] | 106%
3 | CNc1nc(NCCCn2c(C)cccc2=O)cc(C2CCOC2)n1 (stereo not drawn) [CBK306875] | 117%
4 | CC(=O)Oc1ccccc1C(=O)Oc1ccc2c(c1)c(C(C)=O)c(C)n2-c1ccccc1 [CBK263175] | 89.2%
5 | Cc1ccc(C(=O)N2CCC(Cc3ccccc3)CC2)cn1 [CBK200179] | 94.7%
6 | Cc1cc(N2CCOC3(CCN(C(=O)c4ccc5ccccc5c4)CC3)C2)nc(N)n1 [CBK161125A] | 93.2%
7 | CN1C[C@@H](NC(=O)COc2ccccc2)C[C@H]1c1nc(-c2ccncc2)no1 [CBK288855] | 90.4%
8 | CC(c1ccncn1)N(C)C(=O)NCc1cccc(CN(C)C)c1 (stereo not drawn) [CBK307667] | 89.9%
9 | O=C(CCSc1ccc(Cl)cc1)NCCc1ccccc1 [CBK263800] | 86.4%
10 | Cc1ccc(OCc2cc(C)on2)c(Br)c1 [CBK002837] | 109%
11 | COc1ccc(Oc2nccc(N3CCCN(Cc4ccc(C(F)(F)F)cc4)CC3)n2)cc1OC [CBK084152] | 98.2%
12 | CC(C)(C)OC(=O)N1CCN(c2ncc([N+](=O)[O-])s2)CC1 [CBK000135] | 92.1%
13 | O=C(c1ccncc1)n1nc(NCc2ccccc2)nc1NCc1ccccc1 [CBK269069] | 89.5%
14 | COc1ccc(-c2ccc(OC)cc2C(=O)Nc2cccc(-n3cccn3)c2)cc1 [CBK285818] | 94.6%
15 | CS(=O)(=O)N(Cc1ccc(Cl)cc1)c1ccc(C(=O)Nc2ccccc2C(F)(F)F)cc1 [CBK263988] | 101%
16 | CCC1=C(C)C(=O)N(C(=O)NCCc2ccc(S(=O)(=O)NC(=O)NC3CCC(C)CC3)cc2)C1 (stereo not drawn) [CBK011561] | 93.2%
17 | NS(=O)(=O)c1ccc(CCNC(=O)/C=C/c2ccc([N+](=O)[O-])cc2)cc1 [CBK265683] | 110%
18 | CN(C)c1ccc(-c2cnc3[nH]c(=O)n(C4CCCC4)c3n2)cc1 [CBK064964] | 98%
19 | CC(C)(Oc1ccc(Cl)cc1)C(=O)O/N=C(\N)c1ccc(I)cc1 [CBK268760] | 97.2%
20 | Cc1ccc(S(=O)(=O)NC2(C(F)(F)F)NC(=O)N(c3ccc(F)c(Cl)c3)C2=O)cc1 (stereo not drawn) [CBK267473] | 97.2%
21 | O=c1c2sccc2[nH]c(=S)n1CCc1ccccc1 [CBK288486] | 118%
22 | COc1ccc(S(=O)(=O)Nc2ccc(C)cc2)cc1C(=O)Nc1ccc(C)cc1 [CBK265172] | 94.7%

Row | SMILES | viability at 28.5 h, 10 µM
23 | CC(C)C(=O)N[C@H]1C[C@@H](Cc2cc(CN3CCOCC3)on2)C1(C)C [CBK289248] | 99.8%
24 | CS(=O)(=O)N(Cc1ccc(Cl)cc1)c1ccc(C(=O)Nc2ccccc2C(=O)O)cc1 [CBK264093] | 105%
25 | Cc1occc1-c1nnc(SC2CCCCN(C(=O)c3ccc(Cl)cc3)C2=O)n1C (stereo not drawn) [CBK296990] | 97.9%
26 | O=C(CS(=O)(=O)c1ccccc1)N1CCN2C(=O)N(C3CCCCC3)C(=O)[C@H]2C1 [CBK289580] | 89.6%
27 | Clc1ccc(SCc2cccc(CSc3ccc(Cl)c(Cl)c3)n2)cc1Cl [CBK223404] | 86.3%
28 | COc1cccc(OC)c1-c1cn2ccnc2c(NCc2ccccn2)n1 [CBK037439] | 93.7%
29 | COc1ccc(OC)c2[nH]c(C(=O)N3CCCC34CC=CC4)cc12 [CBK282814] | 85.9%
30 | O=C(Cc1ccsc1)N1CCN(C(=O)c2ccco2)CC1 [CBK144446] | 86%
31 | CC1(C)C(=O)N2CCN=C2c2ccccc21 [CBK009903] | 78.6%
32 | Cc1ccc(S(N)(=O)=O)cc1CNC(=O)Nc1cccc(F)c1 [CBK093516] | 83.9%
33 | COc1cc(/C=N/NC(=O)c2ccc([N+](=O)[O-])cc2)ccc1OC(C)=O [CBK261348] | 112%
34 | Cc1cc(=O)[nH]c(CCNc2cc([C@H]3C[C@@H](N)C3)nc(C3CC3)n2)n1 [CBK307651] | 103%
35 | CCCC(=O)Nc1nnc(-c2ccc(Cl)cc2)o1 [CBK287594] | 91.8%
36 | C/C=C/c1ccc(OCCCn2nnc3ccccc32)c(OC)c1 [CBK269271] | 86%
37 | O=C(O)c1cc(S(=O)(=O)Nc2cccc(-c3cnco3)c2)c(F)cc1Cl [CBK067126] | 90.5%
38 | CCCc1cc(=O)[nH]c(SCc2noc(-c3snnc3C)n2)n1 [CBK006474] | 87.4%
39 | CCCC/C=C/c1cnc(N)c(-c2cccc(N)c2)n1 [CBK063954] | 102%
40 | FC(F)c1cc([C@@H]2CN(CC3CCOC3)C[C@H]2c2ccccc2)n[nH]1 (stereo partly drawn) [CBK285430] | 98.5%
41 | CCN(CC)CCn1c(=N)n(CC(=O)c2ccc(Cl)c(Cl)c2)c2ccccc21 [CBK263455B] | 91.5%
42 | Fc1ccc(C2NC(S)=NC3=C2N2CCC3CC2)cc1 (stereo not drawn) [CBK288390] | 95.4%
43 | O=C(NCC(c1ccco1)N1CCCC1)N1CCc2ccccc2C1 (stereo not drawn) [CBK304392] | 98.8%
44 | O=[N+]([O-])c1ccccc1S(=O)(=O)N1CCN(Cc2cccnc2)CC1 [CBK264168G] | 68.3%

Row | SMILES | viability at 28.5 h, 10 µM
45 | O[C@@]1(c2ccccn2)CC[C@H]2CN(CC3CCCCC3)C[C@H]21 [CBK282996] | 96.9%
46 | COc1cc(NC(=O)CSc2ncnc3sc4c(c23)CCCC4)cc(OC)c1 [CBK267547] | 89.6%
47 | CCn1c(COc2ccc(C(=O)O)cc2)nc2ccccc21 [CBK267647] | 91.7%
48 | O=C(O)CCn1ncc2ccccc21 [CBK262257] | 89.8%
49 | CN(C)C1c2cccc3cccc(c23)C1NS(C)(=O)=O (stereo not drawn) [CBK265851] | 110%
50 | COc1ccc(Oc2cncc(OC3CCN(CC4CC4)C3)n2)cc1OC (stereo not drawn) [CBK084412] | 89.3%
51 | c1coc(-c2nccnc2NCCCN2CCOCC2)c1 [CBK038086] | 96.8%
52 | O=C(c1nccs1)C1CCN(C(=O)Cc2ccc(Cl)cc2)CC1 [CBK284160] | 84.1%
53 | Cc1ccc(C(=O)NNC(=O)c2ccc([N+](=O)[O-])cc2)cc1 [CBK261793] | 89.5%
54 | Cc1cc(F)ccc1S(=O)(=O)N1CCC2(CC1)CNC(=O)C2 [CBK283354] | 104%
55 | O=C(O)c1ccccc1-c1ccc(/C=C2\S/C(=N\c3ccccc3)N(c3ccccc3)C2=O)o1 [CBK262566] | 101%
56 | Cc1c(C(=O)C2=C(O)C(=O)N(CCCN(C)C)C2c2ccccn2)cnn1-c1ccccc1 (stereo not drawn) [CBK266516] | 100%
57 | CC(=O)NC(Cc1c[nH]cn1)C(=O)O (stereo not drawn) [CBK261105] | 101%
58 | O=[N+]([O-])c1ccc(N(CCO)CCO)c2nonc12 [CBK261447] | 98.7%
59 | O=C(O)CCC(=O)CCC(=O)c1cccs1 [CBK264807] | 94.2%
60 | O=C(CO/N=C\c1cccc([N+](=O)[O-])c1)Nc1ccccc1C(=O)O [CBK262051] | 91.7%
61 | CCCC(=O)c1ccc(S(=O)(=O)N2CCN(CCCOC3CCCCO3)CC2)cc1 (stereo not drawn) [CBK062858] | 96.6%
62 | COc1cc(OC)c(CN(C)CCN(C)C)cc1Br [CBK021255] | 88.6%
63 | Fc1ccccc1-c1nc2cnccn2c1NCc1ccco1 [CBK283681] | 84.9%
64 | CSCC[C@H](NC(=O)Nc1ccc(N2CCC(C)CC2)cc1)C(=O)O [CBK286743] | 86%
65 | COc1ccc(OC)c(NC(=O)CNC(=O)c2ccc(C)cc2)c1 [CBK268881] | 91.5%
66 | CCCC/C=C/c1cc(NCCC)n2nccc2n1 [CBK037127] | 99.1%

Row | SMILES | viability at 28.5 h, 10 µM
67 | O=C(c1c[nH]c2ccccc12)C(O)C(c1ccccc1)N1CCOCC1 (stereo not drawn) [CBK267802] | 95.4%
68 | Cc1cccc(C)c1NC(=O)CC(CN1CCN(Cc2c(C)noc2C)CC1)C(=O)O (stereo not drawn) [CBK286715] | 89.8%
69 | CC(=O)N1c2ccccc2N(C(C)=O)C1c1ccc(C2N(C(C)=O)c3ccccc3N2C(C)=O)[nH]1 [CBK007216] | 110%
70 | NC(=O)CN1CCCc2ccccc21 [CBK138343] | 90%
71 | CC(C)n1c(=O)n(CC(=O)NCc2cccs2)c2cccnc21 [CBK283699] | 88.6%
72 | O=C(NC1CN2CCC1CC2)c1ncoc1-c1ccccc1 (stereo not drawn) [CBK283888] | 104%
73 | CN(CCC#N)S(=O)(=O)c1ccc(Cl)c(Cl)c1 [CBK045396] | 91.8%
74 | Cc1cc(CN2CCC(C(=O)c3ccc(F)cc3)CC2)no1 [CBK149121] | 89.2%
75 | C#CCNC(=O)[C@H]1O[C@H](CCN2CCCCC2)CC[C@@H]1O [CBK288728] | 101%
76 | CC(C)(CNC(=O)CN1CCOCC1)NC(=O)OC(C)(C)C [CBK089350] | 88.7%
77 | CCCN1C[C@H](NC(=O)C2CC2)[C@@H](c2ccc(OC)cc2)C1 [CBK282518] | 116%
78 | O=C(NCn1nnc2ccccc21)c1ccccc1 [CBK056950] | 93.6%
79 | O=C(COc1ccc(S(=O)(=O)Nc2ccc(Cl)cc2)cc1)Nc1ccccc1F [CBK268427] | 108%
80 | CCOC(=O)c1sc(-c2c(Cl)cc(C(F)(F)F)cc2Cl)nc1O [CBK078547] | 114%
81 | O=C(COc1cccnc1)N[C@H]1C2CCCCC2[C@@H]1c1ccccc1 (stereo partly drawn) [CBK282951] | 100%
82 | O=C(c1cccc(-c2nnc(-c3ccccc3)o2)c1)N1CCN(C(=O)c2ccco2)CC1 [CBK269809] | 78.5%
83 | O=C(NCc1nc2ccccc2[nH]1)c1cc(Br)cnc1NCCOc1ccccc1 [CBK076220] | 104%
84 | O=C(Cc1ccccc1)Nc1ccc(Oc2ccc(C(=O)O)c(C(=O)O)c2)cc1 [CBK263611] | 90.3%
85 | OC1CCN(CC(O)Cn2c3ccccc3c3ccccc32)CC1 (stereo not drawn) [CBK305784] | 100%
86 | CC1CCc2onc(C(=O)Nc3ccncc3)c2C1 (stereo not drawn) [CBK288080] | 110%

Same assay, conditions: human, hela cells, % viability, bulk resorufin, single well

Row | SMILES | viability at 28.5 h, 10 µM
87 | CCOc1ccc(N2C(=O)NC(=O)/C(=C/c3cn(CC(=O)Nc4ccccc4)c4ccccc34)C2=O)cc1 [CBK263544] | 90.2%

From paper PMC12040169 (PLOS Biology, 2025)
